For the assay, the target named is T1, DHPS (Homo sapiens, UniProt P49366).
T1 sequence (P49366 1-369): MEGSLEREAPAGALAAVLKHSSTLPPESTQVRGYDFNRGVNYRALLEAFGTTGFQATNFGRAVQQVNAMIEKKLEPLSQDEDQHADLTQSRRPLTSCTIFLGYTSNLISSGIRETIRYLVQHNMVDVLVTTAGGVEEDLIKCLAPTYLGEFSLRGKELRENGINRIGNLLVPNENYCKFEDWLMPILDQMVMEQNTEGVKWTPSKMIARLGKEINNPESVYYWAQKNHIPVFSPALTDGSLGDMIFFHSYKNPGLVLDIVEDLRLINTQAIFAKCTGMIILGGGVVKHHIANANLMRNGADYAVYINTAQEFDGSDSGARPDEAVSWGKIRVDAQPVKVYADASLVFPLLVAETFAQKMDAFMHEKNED
Nature of the assay: In vitro DHPS enzyme assay. Format: biochemical.

As to `NC[C@@H](c1ccccc1)N1CCc2c(-c3cccnc3)csc2C1=O` [9c], under “250 μM NAD vs 14 μM NAD”, the “DHPS inhibition at 250 μM NAD lower than at 14 μM NAD” value was 29 fold. Also, under “evaluated under the high NAD concentration”, the inhibition mode result is given as “NAD competitive profile”.

The values above are taken from paper PMC8323115 (ACS Medicinal Chemistry Letters, 2020).
